pIC50: −log10 of the molar value.
How the values were obtained:
[1] = molecular target: BaF3-Del_TM_CS cells (Homo sapiens, UniProt P00533, T790M/C797S, cells depend on it, form not given); test: Cell antiproliferation assay (CellTiter-Glo), BaF3-Del_TM_CS; type: cell-based; details: 48 h treatment, read-out: BaF3-Del_TM_CS IC50
Procedure: (§1) BaF3 cells are treated with compounds diluted in 0.2% DMSO, dilution is done according to the following protocol: (1) make 500× stock solution in DMSO from 5 mM by 5-fold dilution, total 8 doses were included; (2) make 10× solution in cell culture medium by transferring 2 μl 500× stock solution into 98 μl medium; (3) 10 μl of 10× solution is added to cells and incubate for 48 h.
(§2) After 48 h treatment, add 30 μl CellTiter-Glo reagent[CellTiter-Glo® 2.0, (Promega, Cat #G9242)] to each well; seal the plate and incubate 2 min at room temperature on a plate shaker; Allow the plate to incubate at room temperature for 10 minutes to stabilize the luminescent signal. Record luminescence on BMG PheraStar with luminescence protocol.
(§3) The IC50 value of a compound can be obtained by fitting the following equation
(§4) Wherein, X and Y are known values, and IC50, Hillslope, Top and Bottom are the parameters obtained by fitting with software. Y is the inhibition percentage (calculated from the equation), X is the concentration of the compound; IC50 is the concentration of the compound when the 50% inhibition is reached. The smaller the IC50 value is, the stronger the inhibitory ability of the compound is. Vice versa, the higher the IC50 value is, the weaker the ability the inhibitory ability of the compound is; Hillslope represents the slope of the fitted curve, generally around 1 *; Bottom represents the minimum value of the curve obtained by data fitting, which is generally 0%±20%; Top represents the maximum value of the curve obtained by data fitting, which is generally 100%±20%. The experimental data were fitted by calculating and analyzing with Dotmatics data analysis software.

[2] = molecular target: EGFR(Dell9_T790M_C797S) (aa 669-1210, in house) (Homo sapiens, UniProt P00533, T790M/C797S, form not given); test: Biochemical EGFR inhibition assay (TR-FRET), Del19/T790M/C797S mutant; details: ATP at Km, 15 min pre-incubation, 60 min reaction; read-out: Del_TM_CS (Km ATP) IC50
Chain of EGFR(Dell9_T790M_C797S) (aa 669-1210, in house) (P00533 with tags, fused parts or gaps DEL746-750/T790M/C797S, form open): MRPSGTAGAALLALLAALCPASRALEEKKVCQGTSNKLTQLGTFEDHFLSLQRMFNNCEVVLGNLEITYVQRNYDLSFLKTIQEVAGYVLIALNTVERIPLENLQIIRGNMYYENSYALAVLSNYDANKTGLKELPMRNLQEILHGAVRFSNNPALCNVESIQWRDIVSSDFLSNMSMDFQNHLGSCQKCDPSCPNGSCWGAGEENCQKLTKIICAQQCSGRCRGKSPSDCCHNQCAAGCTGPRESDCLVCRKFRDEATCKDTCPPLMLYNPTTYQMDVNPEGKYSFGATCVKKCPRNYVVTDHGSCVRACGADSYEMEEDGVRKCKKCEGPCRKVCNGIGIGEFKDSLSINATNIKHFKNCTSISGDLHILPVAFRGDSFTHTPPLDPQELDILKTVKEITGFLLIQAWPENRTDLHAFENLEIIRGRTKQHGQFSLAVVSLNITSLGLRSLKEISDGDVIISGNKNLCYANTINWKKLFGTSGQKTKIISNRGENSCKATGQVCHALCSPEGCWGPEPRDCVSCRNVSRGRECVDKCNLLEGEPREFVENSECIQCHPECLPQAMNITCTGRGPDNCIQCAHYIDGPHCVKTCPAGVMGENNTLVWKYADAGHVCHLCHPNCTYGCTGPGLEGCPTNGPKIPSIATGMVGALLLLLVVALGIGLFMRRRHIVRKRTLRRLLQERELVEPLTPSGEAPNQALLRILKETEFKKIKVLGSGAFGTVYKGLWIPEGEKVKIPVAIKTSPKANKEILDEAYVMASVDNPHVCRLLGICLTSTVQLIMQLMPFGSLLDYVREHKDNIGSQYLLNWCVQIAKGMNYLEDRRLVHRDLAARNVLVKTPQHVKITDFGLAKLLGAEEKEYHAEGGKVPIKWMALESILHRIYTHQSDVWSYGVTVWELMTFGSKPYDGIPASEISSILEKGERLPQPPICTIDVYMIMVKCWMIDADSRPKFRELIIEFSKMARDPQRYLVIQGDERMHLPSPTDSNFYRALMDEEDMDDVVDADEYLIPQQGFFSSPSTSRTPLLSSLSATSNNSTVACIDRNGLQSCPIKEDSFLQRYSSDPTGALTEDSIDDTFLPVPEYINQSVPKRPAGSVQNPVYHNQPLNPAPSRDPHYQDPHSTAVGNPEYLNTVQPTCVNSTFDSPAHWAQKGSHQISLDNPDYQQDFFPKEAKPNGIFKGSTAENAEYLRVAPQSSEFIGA
Procedure: (§5) Compounds were tested for inhibition of kinase activity against EGFR (aa668-1210, Invitrogen), EGFR(L858R_T790M_C797S) (aa695-end, Invitrogen) and EGFR(Dell9_T790M_C797S) (aa 669-1210, in house) in assays based on time-resolved fluorescence-resonance energy transfer (TR-FRET) methodology. Recombinant EGFR, EGFR(L858R_T790M_C797S) or EGFR(Dell9_T790M_C797S) was pre-incubated with the compounds at room temperature for 15 minutes in an assay buffer containing 50 mM HEPES pH7.5, 10 mM MgCl2, 2 mM DTT, 1 mM EGTA, 0.1% BSA, 0.01% Tween-20. The reactions were initiated by the addition of ATP (at the concentration of ATP Km) and substrate Biotin-Poly GT. After reaction at room temperature for 60 minutes, stop/detection solution was added. The stop/detection solution contained Eu^3+ cryptate-conjugated mouse monoclonal antibody (PT66) anti-phosphotyrosine and XL665-conjugated streptavidin in buffer containing 50 mM HEPES pH7.0, 800 mM KF, 20 mM EDTA, and 0.1% BSA. Plates were sealed and incubated at room temperature for 1 hour, and the TR-FRET signals (ratio of fluorescence emission at 665 nm over emission at 620 nm with excitation at 337 nm wavelength) were recorded on a PHERAstar FS plate reader (BMG Labtech). The residual enzyme activity in presence of increasing concentrations of compounds was calculated based on the ratio of fluorescence at 665 nm to that at 620 nm. The IC50 for each compound was derived from fitting the data to the four-parameter logistic equation by Dotmatics or Graphpad Prism software.
(§6) These biochemical EGFR enzyme form compound dose-response assays quantify the kinase activity via phosphorylation of a tagged poly-GT substrate. The results of the assay are provided as IC50 values.

[3] = molecular target: T1, EGFR (aa668-1210, Invitrogen) (Homo sapiens, UniProt P00533); test: Biochemical EGFR inhibition assay (TR-FRET), wild-type EGFR; details: ATP at Km, 15 min pre-incubation, 60 min reaction; read-out: WT (Km ATP) IC50
T1 construct: EGFR (aa668-1210, Invitrogen); purchased Invitrogen
Procedure: as §5, §6

[4] = molecular target: BaF3-LR_TM_CS cells (Homo sapiens, UniProt P00533, T790M/C797S/L858R, cells depend on it); test: Cell antiproliferation assay (CellTiter-Glo), BaF3-LR_TM_CS; type: cell-based; details: 48 h treatment, read-out: BaF3-LR_TM_CS IC50
Chain of BaF3-LR_TM_CS cells (P00533 whole entry T790M/C797S/L858R): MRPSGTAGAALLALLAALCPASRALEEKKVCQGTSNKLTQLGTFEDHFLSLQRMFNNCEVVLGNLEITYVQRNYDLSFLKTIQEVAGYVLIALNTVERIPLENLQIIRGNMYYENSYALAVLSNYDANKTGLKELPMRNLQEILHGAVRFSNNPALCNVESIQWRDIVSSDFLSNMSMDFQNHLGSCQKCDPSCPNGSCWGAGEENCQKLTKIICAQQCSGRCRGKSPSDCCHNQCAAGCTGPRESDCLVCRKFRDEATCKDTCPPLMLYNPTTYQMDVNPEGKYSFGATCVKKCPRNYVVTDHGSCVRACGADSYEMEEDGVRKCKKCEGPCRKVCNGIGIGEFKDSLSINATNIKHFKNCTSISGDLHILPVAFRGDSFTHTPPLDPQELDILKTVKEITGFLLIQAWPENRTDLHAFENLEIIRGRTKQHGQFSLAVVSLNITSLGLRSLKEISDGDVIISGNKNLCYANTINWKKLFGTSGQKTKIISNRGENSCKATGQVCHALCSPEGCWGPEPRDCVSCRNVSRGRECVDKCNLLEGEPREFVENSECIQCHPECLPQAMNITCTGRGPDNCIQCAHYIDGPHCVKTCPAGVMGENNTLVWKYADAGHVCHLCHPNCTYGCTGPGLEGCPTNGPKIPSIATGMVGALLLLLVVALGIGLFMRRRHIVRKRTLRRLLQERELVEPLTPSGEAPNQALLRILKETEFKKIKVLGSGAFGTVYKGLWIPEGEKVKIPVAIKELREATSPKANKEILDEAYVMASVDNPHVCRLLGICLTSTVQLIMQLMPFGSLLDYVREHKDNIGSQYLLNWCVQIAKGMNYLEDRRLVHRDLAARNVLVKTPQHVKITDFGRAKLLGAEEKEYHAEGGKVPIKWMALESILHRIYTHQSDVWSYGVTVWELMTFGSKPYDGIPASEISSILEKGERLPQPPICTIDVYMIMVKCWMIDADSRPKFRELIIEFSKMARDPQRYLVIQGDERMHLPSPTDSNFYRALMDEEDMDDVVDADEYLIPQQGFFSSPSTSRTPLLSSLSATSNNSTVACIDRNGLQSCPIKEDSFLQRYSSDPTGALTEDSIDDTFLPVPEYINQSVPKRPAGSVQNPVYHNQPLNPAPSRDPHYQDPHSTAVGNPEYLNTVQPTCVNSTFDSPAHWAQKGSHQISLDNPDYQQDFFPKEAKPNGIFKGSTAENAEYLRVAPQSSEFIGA
Procedure: as §1, §2, §3, §4

[5] = molecular target: T2, EGFR(L858R_T790M_C797S) (aa695-end, Invitrogen) (Homo sapiens, UniProt P00533, C797S/L858R/T790M); test: Biochemical EGFR inhibition assay (TR-FRET), L858R/T790M/C797S mutant; details: ATP at Km, 15 min pre-incubation, 60 min reaction; read-out: LR_TM_CS (Km ATP) IC50
T2 construct: purchased Invitrogen
Procedure: as §5, §6

[6] = molecular target: BaF3-WT cells (Homo sapiens, UniProt P00533); test: Cell antiproliferation assay (CellTiter-Glo), BaF3-WT; type: cell-based; details: 48 h treatment, read-out: BaF3-WT IC50
Chain of BaF3-WT cells (P00533 whole entry, change not shown): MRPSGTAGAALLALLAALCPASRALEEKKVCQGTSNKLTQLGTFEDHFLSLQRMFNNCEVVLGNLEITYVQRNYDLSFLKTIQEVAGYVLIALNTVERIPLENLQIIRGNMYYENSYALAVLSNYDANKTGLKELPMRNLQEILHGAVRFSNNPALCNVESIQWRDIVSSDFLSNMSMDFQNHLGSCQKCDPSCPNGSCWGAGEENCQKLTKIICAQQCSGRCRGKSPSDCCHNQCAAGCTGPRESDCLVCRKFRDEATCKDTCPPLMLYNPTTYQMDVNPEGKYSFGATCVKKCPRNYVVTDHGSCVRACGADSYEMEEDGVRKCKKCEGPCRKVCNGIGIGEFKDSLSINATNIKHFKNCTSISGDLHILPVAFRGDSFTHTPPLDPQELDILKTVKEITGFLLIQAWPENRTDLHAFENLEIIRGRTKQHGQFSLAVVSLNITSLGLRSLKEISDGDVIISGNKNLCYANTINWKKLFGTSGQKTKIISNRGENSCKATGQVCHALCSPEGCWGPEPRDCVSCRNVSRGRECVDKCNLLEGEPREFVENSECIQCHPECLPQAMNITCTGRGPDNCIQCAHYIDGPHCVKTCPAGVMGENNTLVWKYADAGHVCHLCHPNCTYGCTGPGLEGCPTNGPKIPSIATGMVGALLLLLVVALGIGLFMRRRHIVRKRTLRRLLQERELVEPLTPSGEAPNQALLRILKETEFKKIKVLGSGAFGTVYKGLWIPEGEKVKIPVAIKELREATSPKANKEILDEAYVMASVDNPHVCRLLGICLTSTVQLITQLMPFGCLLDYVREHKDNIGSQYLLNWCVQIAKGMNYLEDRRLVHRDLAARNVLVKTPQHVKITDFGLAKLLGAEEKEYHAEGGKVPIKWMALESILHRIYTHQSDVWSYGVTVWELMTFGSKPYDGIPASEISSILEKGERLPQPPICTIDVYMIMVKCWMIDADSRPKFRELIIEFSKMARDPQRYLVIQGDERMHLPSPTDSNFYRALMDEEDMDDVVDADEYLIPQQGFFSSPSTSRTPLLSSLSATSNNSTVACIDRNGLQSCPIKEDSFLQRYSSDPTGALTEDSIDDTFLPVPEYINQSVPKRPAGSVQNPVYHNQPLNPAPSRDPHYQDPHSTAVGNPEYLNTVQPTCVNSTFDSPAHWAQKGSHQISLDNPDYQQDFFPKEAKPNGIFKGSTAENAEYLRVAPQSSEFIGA
Procedure: as §1, §2, §3, §4

Chain of BaF3-Del_TM_CS cells (P00533 with tags, fused parts or gaps DEL746-750/T790M/C797S, form open): as the sequence (P00533 with tags, fused parts or gaps DEL746-750/T790M/C797S, form open) above

Compound	GI50 [1]	pIC50 [2]	pIC50 [3]	GI50 [4]	pIC50 [5]	GI50 [6]
CNC(=O)N1CCc2cccc(Nc3nc(Nc4ccc(N5CCC(N6CCN(C)CC6)CC5)cc4OC)ncc3Cl)c21 [Example 16, 7-((5-chloro-2-((2-methoxy-4-(4-(4-methylpiperazin-1-yl)piperidin-1-yl)phenyl)amino)pyrimidin-4-yl)amino)-N-methylindoline-1-carboxamide]	802 nM	7.06	6.54	1120 nM	7.42	1980 nM
CN(C)C1CCN(c2ccc(Nc3ncc(Br)c(Nc4cccc5c4N(S(C)(=O)=O)CC5)n3)c3c2OCO3)CC1 [Example 52, 5-bromo-N^2-(7-(4-(dimethylamino)piperidin-1-yl)benzo[d][1,3]dioxol-4-yl)-N^4-(1-(methylsulfonyl)indolin-7-yl)pyrimidine-2,4-diamine]	11.2 nM	9.92	8.26	18.7 nM	9.38	145 nM
COc1cc(C2CCC(N(C)C)CC2)c(C)cc1Nc1nc(Nc2cccc3c2N(S(C)(=O)=O)CC3)c2cc[nH]c2n1 (stereo not drawn) [Example 104, N^2-(4-(4-(dimethylamino)cyclohexyl)-2-methoxy-5-methylphenyl)-N^4-(1-(methylsulfonyl)indolin-7-yl)-7H-pyrrolo[2,3-d]pyrimidine-2,4-diamine]	128 nM	8.28	6.48	195 nM	8.47	1490 nM
COc1cc(N2CCC(N3CCN(C)CC3)CC2)ccc1Nc1ncc(Cl)c(Nc2cccc3c2N(S(=O)(=O)CF)CC3)n1 [Example 12, 5-chloro-N^4-(1-((fluoromethyl)sulfonyl)indolin-7-yl)-N^2-(2-methoxy-4-(4-(4-methylpiperazin-1-yl)piperidin-1-yl)phenyl)pyrimidine-2,4-diamine]	–	9.36	8.52	–	8.93	–
CN1CCN(C2CCN(c3ccc(Nc4nc(Nc5cccc6c5N(S(C)(=O)=O)CC6)c5cc[nH]c5n4)c4c3OCO4)CC2)CC1 [Example 182, N2-(7-(4-(4-methylpiperazin-1-yl)piperidin-1-yl)benzo[d][1,3]dioxol-4-yl)-N4-(1-(methylsulfonyl)indolin-7-yl)-7H-pyrrolo[2,3-d]pyrimidine-2,4-diamine]	–	8.82	6.64	–	8.92	–
COc1cc(N2CCC(N3CCN(C)C(=O)C3)CC2)ccc1Nc1nc(Nc2cccc3c2N(S(C)(=O)=O)CC3)c2cc[nH]c2n1 [Example 186, 4-(1-(3-methoxy-4-((4-((1-(methylsulfonyl)indolin-7-yl)amino)-7H-pyrrolo[2,3-d]pyrimidin-2-yl)amino)phenyl)piperidin-4-yl)-1-methylpiperazin-2-one]	–	8.31	6.86	–	8.82	–
COc1cc(C2CCN(CCN(C)C)CC2)c(C)cc1Nc1nc(Nc2cccc3c2N(S(C)(=O)=O)CC3)c2cc[nH]c2n1 [Example 109, N^2-(4-(1-(2-(dimethylamino)ethyl)piperidin-4-yl)-2-methoxy-5-methylphenyl)-N^4-(1-(methylsulfonyl)indolin-7-yl)-7H-pyrrolo[2,3-d]pyrimidine-2,4-diamine]	–	8.00	6.36	–	8.51	–
COc1cc(Nc2nc(Nc3cccc4c3N(S(C)(=O)=O)CC4)c3cc[nH]c3n2)ccc1N1CCC(N2CCN(C)CC2)CC1 [Example 81, N^2-(3-methoxy-4-(4-(4-methylpiperazin-1-yl)piperidin-1-yl)phenyl)-N^4-(1-(methylsulfonyl)indolin-7-yl)-7H-pyrrolo[2,3-d]pyrimidine-2,4-diamine]	–	9.12	7.08	–	9.36	–
COc1cc(N2CCC3(CCN(C)CC3)CC2)c(Cl)cc1Nc1ncc(Br)c(Nc2cccc3c2N(S(C)(=O)=O)CC3)n1 [Example 44, 5-bromo-N^2-(5-chloro-2-methoxy-4-(9-methyl-3,9-diazaspiro[5.5]undecan-3-yl)phenyl)-N^4-(1-(methylsulfonyl)indolin-7-yl)pyrimidine-2,4-diamine]	–	9.15	8.49	–	9.52	–
COc1cc(N2CCC(N3CCN(C)CC3=O)CC2)ccc1Nc1nc(Nc2cccc3c2N(S(C)(=O)=O)CC3)c2cc[nH]c2n1 [Example 191, 1-(1-(3-methoxy-4-((4-((1-(methylsulfonyl)indolin-7-yl)amino)-7H-pyrrolo[2,3-d]pyrimidin-2-yl)amino)phenyl)piperidin-4-yl)-4-methylpiperazin-2-one]	–	8.72	7.50	–	9.22	–
COc1cc(N2CCC(N3CCN(C)CC3)CC2)c(C)cc1Nc1ncc(Cl)c(Nc2cccc3c2N(S(C)(=O)=O)CC32CC2)n1 [Example 188, 5-chloro-N2-(2-methoxy-5-methyl-4-(4-(4-methylpiperazin-1-yl)piperidin-1-yl)phenyl)-N4-(1′-(methylsulfonyl)spiro[cyclopropane-1,3′-indolin]-7′-yl)pyrimidine-2,4-diamine]	–	9.15	9.30	–	9.52	–
COc1cc(N2CCC(N3CCN(C)CC3)CC2)ccc1Nc1ncc(Br)c(Nc2cccc3c2N(S(C)(=O)=O)C2(CC2)C3)n1 [Example 136, 5-bromo-N2-(2-methoxy-4-(4-(4-methylpiperazin-1-yl)piperidin-1-yl)phenyl)-N4-(1′-(methylsulfonyl)spiro[cyclopropane-1,2′-indolin]-7′-yl)pyrimidine-2,4-diamine]	–	9.05	8.85	–	9.52	–
COc1cc(N2C[C@@H]3C[C@H]2CN3C)ccc1Nc1nc(Nc2cccc3c2N(S(C)(=O)=O)CC3)c2cc[nH]c2n1 [Example 110, N^2-(2-methoxy-4-((1S,4S)-5-methyl-2,5-diazabicyclo[2.2.1]heptan-2-yl)phenyl)-N^4-(1-(methylsulfonyl)indolin-7-yl)-7H-pyrrolo[2,3-d]pyrimidine-2,4-diamine]	–	7.97	6.24	–	8.29	–
COc1cc(N2CCC3(CC2)CN(C)C3)c(C)cc1Nc1ncc(Br)c(Nc2cccc3c2N(S(C)(=O)=O)CC3)n1 [Example 45, 5-bromo-N^2-(2-methoxy-5-methyl-4-(2-methyl-2,7-diazaspiro[3.5]nonan-7-yl)phenyl)-N^4-(1-(methylsulfonyl)indolin-7-yl)pyrimidine-2,4-diamine]	–	9.52	9.00	–	9.70	–
CN1CCN(c2ccc(Nc3ncc(Br)c(Nc4cccc5c4N(S(C)(=O)=O)CC5)n3)c3c2CC(C)(C)O3)CC1 [Example 56, 5-bromo-N^2-(2,2-dimethyl-4-(4-methylpiperazin-1-yl)-2,3-dihydrobenzofuran-7-yl)-N^4-(1-(methylsulfonyl)indolin-7-yl)pyrimidine-2,4-diamine]	–	7.97	6.62	–	7.63	–

From patent US20260167619A2, “INDOLINE COMPOUNDS AND DERIVATIVES AS EGFR INHIBITORS” (BeOne Medicines I GmbH, priority 2020, published 2026)
